In patent US6187802A, “Substituted 4-arylmethylene-2-imino-2,3-dihydrothiazoles and derivatives and their pharmaceutical use” (Knoll Aktiengesellschaft, priority 1997, dated 2001):
Structures can show the parent of a compound that is named as a salt.

Columns and labels:
[1] = biological target: T1, dopamine (DA) reuptake sites (Rattus norvegicus, UniProt P23977); test: displacement of [3H]GBR 12935 from dopamine reuptake sites, striatal membranes; assay type: binding; details: 10^-6 M test compound, [3H]GBR 12935 1 nM, one test only, read-out: DA uptake (% displacement of specific binding of tritiated ligand)
T1 construct: Striatal tissue from the brains of male Charles River rats weighing 150-250 g; from tissue; host or cells: rat brain striatum (crude synaptosomes in A1, washed membranes in A4)
Outline: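 Rat striatal membranes (male rats, 150-250 g) incubated 90 min at 4 °C with 1 nM [3H]GBR 12935 in 50 mM Tris-HCl pH 7.4, 200 mM NaCl, 5 mM KCl; non-specific binding with 1 μM mazindol. Filtration, scintillation counting; value is % displacement of specific binding at 10^-6 M, single test; IA means <50%.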

[2] = biological target: T2, noradrenaline (NA) reuptake sites (Rattus norvegicus, UniProt Q63380); test: displacement of [3H]nisoxetine from noradrenaline reuptake sites, frontal cortical membranes; details: 10^-6 M test compound, [3H]nisoxetine 0.6 nM, one test only, read-out: NA uptake (% displacement of specific binding of tritiated ligand)
T2 construct: Frontal cortical tissue from the brains of male Sprague-Dawley rats; from tissue; host or cells: rat brain frontal cortex (crude synaptosomes in A3, washed membranes in A6)
Outline: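 Washed male rat frontal cortex membranes in 50 mM Tris pH 7.4, 300 mM NaCl, 5 mM KCl, incubated 4 h at 4 °C with 0.6 nM [3H]nisoxetine and test compound at 10^-6 M; mazindol (1 μM) defined non-specific binding. Filtration, scintillation counting; % displacement of specific binding, single test.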

[3] = biological target: T3, 5-hydroxytryptamine (5-HT) reuptake sites (Rattus norvegicus, UniProt P31652); test: displacement of [3H]paroxetine from 5-HT reuptake sites, frontal cortical membranes; assay type: binding; details: 10^-6 M test compound, [3H]paroxetine 30 pM, one test only, read-out: 5-HT uptake (% displacement of specific binding of tritiated ligand)
T3 construct: Frontal cortical tissue from the brains of male Sprague-Dawley rats; from tissue; host or cells: rat brain frontal cortex (crude synaptosomes in A2, washed membranes in A5)
Outline: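 Rat frontal cortex membranes (male, 150-250 g; 2 mg wet tissue/tube) in 50 mM Tris-HCl pH 7.5 with 120 mM NaCl and 5 mM KCl, incubated 2 h at 22 °C with 30 pM [3H]paroxetine and compound at 10^-6 M. Citalopram 1 μM defined non-specific binding; values are % displacement of specific binding from a single test, filtration and scintillation counting.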

T1 sequence (P23977 whole entry): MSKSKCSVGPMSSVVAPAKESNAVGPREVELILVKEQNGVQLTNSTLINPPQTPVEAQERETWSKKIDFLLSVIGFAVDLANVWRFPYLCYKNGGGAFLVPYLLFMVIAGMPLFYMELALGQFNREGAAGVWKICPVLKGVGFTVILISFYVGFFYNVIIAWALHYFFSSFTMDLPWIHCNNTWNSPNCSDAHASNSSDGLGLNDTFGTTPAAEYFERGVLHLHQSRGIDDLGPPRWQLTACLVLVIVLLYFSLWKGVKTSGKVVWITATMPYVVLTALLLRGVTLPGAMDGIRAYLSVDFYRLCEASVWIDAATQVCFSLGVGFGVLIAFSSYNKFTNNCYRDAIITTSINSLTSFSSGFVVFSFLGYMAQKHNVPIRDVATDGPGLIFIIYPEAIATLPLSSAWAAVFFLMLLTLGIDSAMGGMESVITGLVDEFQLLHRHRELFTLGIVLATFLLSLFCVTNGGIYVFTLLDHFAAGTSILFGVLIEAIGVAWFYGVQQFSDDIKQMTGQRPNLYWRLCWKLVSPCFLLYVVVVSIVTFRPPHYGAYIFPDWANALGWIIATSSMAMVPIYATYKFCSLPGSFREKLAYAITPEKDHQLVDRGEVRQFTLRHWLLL
T2 sequence (Q63380 1-617): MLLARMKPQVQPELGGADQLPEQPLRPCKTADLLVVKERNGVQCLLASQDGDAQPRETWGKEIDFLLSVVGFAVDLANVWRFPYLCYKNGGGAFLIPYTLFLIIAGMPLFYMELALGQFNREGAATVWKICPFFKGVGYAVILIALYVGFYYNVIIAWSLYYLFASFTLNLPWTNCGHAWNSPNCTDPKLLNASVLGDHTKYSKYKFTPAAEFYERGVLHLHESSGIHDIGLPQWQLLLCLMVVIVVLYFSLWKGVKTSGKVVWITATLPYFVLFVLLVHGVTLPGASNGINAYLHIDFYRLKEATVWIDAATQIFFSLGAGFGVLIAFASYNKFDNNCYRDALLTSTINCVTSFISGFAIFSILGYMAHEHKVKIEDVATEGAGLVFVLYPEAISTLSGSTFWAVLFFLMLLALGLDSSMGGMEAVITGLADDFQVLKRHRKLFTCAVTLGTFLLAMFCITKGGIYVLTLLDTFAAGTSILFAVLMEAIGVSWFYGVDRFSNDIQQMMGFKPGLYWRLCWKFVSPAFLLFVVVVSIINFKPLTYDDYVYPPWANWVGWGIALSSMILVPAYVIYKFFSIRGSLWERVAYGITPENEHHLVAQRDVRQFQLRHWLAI
T3 sequence (P31652 whole entry): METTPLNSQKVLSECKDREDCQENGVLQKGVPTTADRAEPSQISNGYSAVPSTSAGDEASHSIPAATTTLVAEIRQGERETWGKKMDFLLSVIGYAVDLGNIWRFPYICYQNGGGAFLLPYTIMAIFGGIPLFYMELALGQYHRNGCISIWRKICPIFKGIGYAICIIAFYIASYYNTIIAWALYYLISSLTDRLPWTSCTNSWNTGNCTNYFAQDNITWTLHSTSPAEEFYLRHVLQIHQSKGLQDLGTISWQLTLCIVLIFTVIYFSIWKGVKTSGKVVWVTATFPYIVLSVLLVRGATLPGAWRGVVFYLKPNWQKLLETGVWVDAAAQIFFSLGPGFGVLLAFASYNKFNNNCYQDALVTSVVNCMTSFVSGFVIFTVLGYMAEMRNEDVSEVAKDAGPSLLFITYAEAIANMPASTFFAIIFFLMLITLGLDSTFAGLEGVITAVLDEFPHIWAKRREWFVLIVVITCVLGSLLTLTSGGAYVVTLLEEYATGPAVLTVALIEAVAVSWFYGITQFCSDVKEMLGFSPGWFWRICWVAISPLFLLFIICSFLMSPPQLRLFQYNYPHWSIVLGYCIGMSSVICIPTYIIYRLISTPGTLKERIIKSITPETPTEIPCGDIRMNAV

SMILES | inhibition at 1 µM [1] | inhibition at 1 µM [2] | inhibition at 1 µM [3]
CCCCN=c1scc(C2(c3ccc(Br)cc3)CCC2)n1CCCC [Example 57, 4-[1-(4-Bromophenyl)cyclobutyl]-3-butyl-2-butylimino-2,3-dihydrothiazole hydrobromide] | 94% | < 50% | < 50%
C=CCN=c1scc(C2(c3ccc(Cl)c(Cl)c3)CCC2)n1CC=C [Example 20, 3-Allyl-2-allylimino-4-[1-(3,4-dichlorophenyl)cyclobutyl]-2,3-dihydrothiazole hydrobromide] | 105% | 91% | 104%
c1ccc2cc(C3(c4csc(=NCC5CC5)n4CC4CC4)CCC3)ccc2c1 [Example 43, 3-Cyclopropylmethyl-2-cyclopropylmethylimino4-[1-(2-naphthyl)cyclobutyl]-2,3-dihydrothiazole hydrobromide] | 113% | 93% | 101%
Clc1ccc(C2(C3=C(c4ccccc4)SC4=NCCN43)CCC2)cc1Cl [Example 9, 3-[1-(3,4-dichlorophenyl)cyclobutyl]-2-phenyl-5,6-dihydroimidazo[2,1-b]thiazole hydrobromide] | 60% | < 50% | 75%
Cc1ccc(N=c2scc(C3(c4ccc(Cl)c(Cl)c4)CCC3)n2-c2ccc(C)cc2)cc1 [Example 28, 4-[1-(3,4-Dichlorophenyl)cyclobutyl]-3-(p-tolyl)-2-(ptolylimino)-2,3-dihydrothiazole hydrobromide] | 71% | < 50% | < 50%
FC(F)(F)c1cccc(N=c2scc(C3(c4ccc(Cl)c(Cl)c4)CCC3)n2-c2cccc(C(F)(F)F)c2)c1 [Example 30, 4-[1-(3,4-Dichlorophenyl)cyclobutyl]-3-(3-trifluoromethylphenyl)-2-(3-trifluoromethylphenylimino)-2,3-dihydrothiazole hydrobromide] | 79% | < 50% | < 50%
COc1ccc(CCN=c2scc(C3(c4ccccc4)CCCCC3)n2CCc2ccc(OC)c(OC)c2)cc1OC [Example 68, 3-(3,4-Dimethoxyphenethyl)-2-(3,4-dimethoxyphenethylimino)-4-(1-phenylcyclohexyl)-2,3-dihydrothiazole hydrobromide] | 65% | < 50% | < 50%
CCN=c1scc(C2(c3ccc4ccccc4c3)CCC2)n1CC [Example 37, 3-Ethyl-2-ethylimino-4-[1-(2-naphthyl)cyclobutyl]-2,3-dihydrothiazole hydrobromide] | 110% | 102% | 101%
Fc1ccc(CN=c2scc(C3(c4ccc5ccccc5c4)CCC3)n2Cc2ccc(F)cc2)cc1 [Example 45, 3-(4-Fluorobenzyl)-2-(4-fluorobenzylimino)-4-[1-(2-naphthyl)cyclobutyl]-2,3-dihydrothiazole hydrobromide] | 96% | < 50% | 59%
CCN=c1scc(C2(c3ccc(Cl)c(Cl)c3)CCC2)n1CC [Example 15, 4-[1-(3,4-Dichlorophenyl)cyclobutyl]-3-ethyl-2-ethylimino-2,3-dihydrothiazole hydrobromide] | 115% | 99% | 102%
COc1ccc(CCN=c2scc(C(C)(C)c3ccc(Cl)c(Cl)c3)n2CCc2ccc(OC)c(OC)c2)cc1OC [Example 69, 4-[l-(3,4-Dichlorophenyl)-1-methylethyl]-3-(3,4-dimethoxyphenethyl)-2-(3,4-dimethoxyphenethylimino)-2,3-dihydrothiazole hydrobromide] | 58% | < 50% | < 50%
COc1ccc(CCN=c2scc(C3(c4ccc(Br)cc4)CCC3)n2CCc2ccc(OC)c(OC)c2)cc1OC [Example 66, 4-[1-(4-Bromophenyl)cyclobutyl]-3-(3,4-dimethoxyphenethyl)-2-(3,4-dimethoxyphenethylimino)-2,3-dihydrothiazole hydrobromide] | 58% | < 50% | < 50%
CC(C)N=c1scc(C2(c3ccc4ccccc4c3)CCC2)n1C(C)C [Example 39, 3-Isopropyl-2-isopropylimino-4-[1-(2-naphthyl)cyclobutyl]-2,3-dihydrothiazole hydrobromide] | 108% | 58% | 100%
c1ccc(CN=c2scc(C3(c4ccc5ccccc5c4)CCC3)n2Cc2ccccc2)cc1 [Example 44, 3-Benzyl-2-benzylimino-4-[1-(2-naphthyl)cyclobutyl]-2,3-dihydrothiazole hydrobromide] | 96% | < 50% | 72%
CCCCN=c1scc(C2(c3ccccc3)CCCCC2)n1CCCC [Example 61, 3-Butyl-2-butylimino-4-(1-phenylcyclohexyl)-2,3-dihydrothiazole hydrobromide] | 68% | < 50% | < 50%
CCOc1ccc(N=c2scc(C3(c4ccc(Cl)c(Cl)c4)CCC3)n2-c2ccc(OCC)cc2)cc1 [Example 32, 4-[1-(3,4-Dichlorophenyl)cyclobutyl]-3-(4-ethoxyphenyl)-2-(4-ethoxyphenylimino)-2,3-dihydrothiazole hydrobromide] | 69% | < 50% | < 50%
Clc1ccc(C2(c3csc(=NCCc4ccccc4)n3CCc3ccccc3)CCC2)cc1Cl [Example 24, 4-[1-(3,4-Dichlorophenyl)cyclobutyl]-3-phenethyl-2-phenethylimino-2,3-dihydrothiazole hydrobromide] | 90% | < 50% | < 50%
CCCCN=c1scc(C2(c3ccc4ccccc4c3)CCC2)n1CCCC [Example 40, 3-Butyl-2-butylimino-4-[1-(2-naphthyl)cyclobutyl]-2,3-dihydrothiazole hydrobromide] | 113% | < 50% | 97%
c1ccc2cc(C3(c4csc(=NC5CCCC5)n4C4CCCC4)CCC3)ccc2c1 [Example 53, 3-Cyclopentyl-2-cyclopentylimino-4-[1-(2-naphthyl)cyclobutyl]-2,3-dihydrothiazole hydrobromide] | 80% | < 50% | 71%
CCCCN=c1scc(C2(c3ccc(Oc4ccccc4)cc3)CCC2)n1CCCC [Example 59, 3-Butyl-2-butylimino-4-[1-(4-phenoxyphenyl)cyclobutyl]-2,3-dihydrothiazole hydrobromide] | 73% | < 50% | < 50%
Cc1ccc(N=c2scc(C3(c4ccc5ccccc5c4)CCC3)n2-c2ccc(C)cc2C)c(C)c1 [Example 52, 4-[1-(2-Naphthyl)cyclobutyl]-3-(2,4-xylyl)-2-(2,4-xylylimino)-2,3-dihydrothiazole hydrobromide] | 74% | < 50% | < 50%
c1ccc(CCN=c2scc(C3(c4ccc5ccccc5c4)CCC3)n2CCc2ccccc2)cc1 [Example 46, 4-1-(2-Naphthyl)cyclobutyl]-3-phenethyl-2-phenethylimino-2,3-dihydrothiazole hydrobromide] | 98% | < 50% | 51%
CCCCN=c1scc(C2(c3ccc(Cl)cc3)CCC2)n1CCCC [Example 56, 3-Butyl-2-butylimino-4-[1-(4-chlorophenyl)cyclobutyl]-2,3-dihydrothiazole hydrobromide] | 93% | < 50% | < 50%
COc1ccc(CCN=c2scc(C3(c4ccc(Cl)c(Cl)c4)CCC3)n2CCc2ccc(OC)c(OC)c2)cc1OC [Example 33, 4-[1-(3,4-Dichlorophenyi)cyclobutyl]-3-(3,4-dimethoxyphenethyl)-2-(3,4-dimethoxyphenethylimino)-2,3-dihydnothiazole hydrobromide] | 99% | < 50% | 63%
